Measurements reported in PubChem BioAssay AID1918935 (Molecular Pharmacology Branch, DTP, NCI, 2023).

Test system: 324938-238-R-J1-PDC complex spheroid viability
Experiment: Anticancer human tumor 324938-238-R-J1-PDC patient-derived bladder carcinoma cell line growth inhibition
Conditions: for IC50: curve of first compound; for viability, T/C: stronger effect = lower value
How it was run: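 Multicellular complex spheroids of tumor cells with human endothelial cells (HUVEC) and mesenchymal stem cells; the LSD1 inhibitor iadademstat was combined with standard-of-care or investigational agents. Top concentration at or near clinical Cmax, half-log dilutions; final DMSO ≤0.25%.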

[1] = second compound 0.1 µM, first compound 0.00316 µM
[2] = second compound 0.1 µM, first compound 0.01 µM
[3] = second compound 0.1 µM, first compound 0.0316 µM
[4] = second compound 0.1 µM, first compound 0.1 µM
[5] = second compound 0.316 µM, first compound 0.00316 µM
[6] = second compound 0.316 µM, first compound 0.01 µM
[7] = second compound 0.316 µM, first compound 0.0316 µM
[8] = second compound 0.316 µM, first compound 0.1 µM
[9] = second compound 1 µM, first compound 0.00316 µM
[10] = second compound 1 µM, first compound 0.01 µM
[11] = second compound 1 µM, first compound 0.0316 µM
[12] = second compound 1 µM, first compound 0.1 µM
[13] = second compound 3.16 µM, first compound 0.00316 µM
[14] = second compound 3.16 µM, first compound 0.01 µM
[15] = second compound 3.16 µM, first compound 0.0316 µM
[16] = second compound 3.16 µM, first compound 0.1 µM
[17] = second compound 10 µM, first compound 0.00316 µM
[18] = second compound 10 µM, first compound 0.01 µM
[19] = second compound 10 µM, first compound 0.0316 µM
[20] = second compound 10 µM, first compound 0.1 µM
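Further: spheroids also contain HUVEC and human MSCs and agents combined with iadademstat; spheroids exposed to agents for 7 days before readout.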

SMILES	IC50 (second compound 0.1 µM)	IC50 (second compound 0.316 µM)	IC50 (second compound 1 µM)	IC50 (second compound 3.16 µM)	IC50 (second compound 10 µM)	viability, T/C [1]	viability, T/C [2]	viability, T/C [3]	viability, T/C [4]	viability, T/C [5]	viability, T/C [6]	viability, T/C [7]	viability, T/C [8]	viability, T/C [9]	viability, T/C [10]	viability, T/C [11]	viability, T/C [12]	viability, T/C [13]	viability, T/C [14]	viability, T/C [15]	also measured
COc1cc(Nc2ncc3c(n2)-c2ccc(Cl)cc2C(c2c(F)cccc2OC)=NC3)ccc1C(=O)O + NC1CC1c1ccc(-c2cccc(O)c2)cc1	10.7 nM	9.45 nM	11.9 nM	13.7 nM	10.8 nM	76.1%	51%	28.1%	13.9%	69.5%	48.3%	30%	16%	63%	54.3%	26.2%	16.5%	62.6%	57.6%	30%	viability, T/C (second compound 0.1 µM, first compound 0.316 µM): 18.2%; viability, T/C (second compound 0.1 µM, first compound 1 µM): 13.9%; viability, T/C (second compound 0.316 µM, first compound 0.316 µM): 15.8%; viability, T/C (second compound 0.316 µM, first compound 1 µM): 14.8%; viability, T/C (second compound 1 µM, first compound 0.316 µM): 17.6%; viability, T/C (second compound 1 µM, first compound 1 µM): 15.1%; viability, T/C [16]: 18.1%; viability, T/C (second compound 3.16 µM, first compound 0.316 µM): 18.8%; viability, T/C (second compound 3.16 µM, first compound 1 µM): 16.5%; viability, T/C [17]: 57.4%; viability, T/C [18]: 51.2%; viability, T/C [19]: 29.5%; viability, T/C [20]: 19.4%; viability, T/C (second compound 10 µM, first compound 0.316 µM): 19.7%; viability, T/C (second compound 10 µM, first compound 1 µM): 25.8%
Cn1ncnc1C1c2n[nH]c(=O)c3cc(F)cc(c23)NC1c1ccc(F)cc1 (stereo not given) + NC1CC1c1ccc(-c2cccc(O)c2)cc1	37.8 nM	52.3 nM	46.1 nM	59.6 nM	59.8 nM	78.1%	76.7%	50.8%	43.1%	69.3%	61.9%	50%	47%	66.4%	62.3%	53.8%	41.8%	63.9%	63.1%	48.6%	viability, T/C (second compound 0.1 µM, first compound 0.000316 µM): 82.2%; viability, T/C (second compound 0.1 µM, first compound 0.001 µM): 91%; viability, T/C (second compound 0.316 µM, first compound 0.000316 µM): 88.3%; viability, T/C (second compound 0.316 µM, first compound 0.001 µM): 65.7%; viability, T/C (second compound 1 µM, first compound 0.000316 µM): 70%; viability, T/C (second compound 1 µM, first compound 0.001 µM): 71.1%; viability, T/C (second compound 3.16 µM, first compound 0.000316 µM): 76.1%; viability, T/C (second compound 3.16 µM, first compound 0.001 µM): 73.1%; viability, T/C [16]: 49.2%; viability, T/C (second compound 10 µM, first compound 0.000316 µM): 64.1%; viability, T/C (second compound 10 µM, first compound 0.001 µM): 68%; viability, T/C [17]: 64%; viability, T/C [18]: 60.4%; viability, T/C [19]: 47%; viability, T/C [20]: 50%
